Experimental data from US20220040230A1, “COMPOSITIONS AND METHODS FOR IMMUNOTHERAPIES” (The Regents of the University of California, priority 2018, published 2022).

How the values were obtained:
OSCSCs = assay: Chemotherapy-mediated cell death of OSCSCs; format: cell-based, human
OSCCs = assay: Chemotherapy-mediated cell death of OSCCs; format: cell-based, human
PL12 = assay: Propidium iodide cell death assay, PL12
[1] = test system: NK-supernatant differentiated MP2 tumors; assay: Propidium iodide cell death assay, NK-supernatant differentiated MP2; format: cell-based, human
Procedure: (§1) P-values of <0.05 were obtained for differences between MP2 vs. PL12 and Capan at the concentrations of 10 nM, 200 nM, 600 nM, 1000 nM and […] of Paclitaxel (n=2 per each experimental condition) (FIG. 25A).
Differentiation of MP2 tumors was conducted as described previously. NK cells were treated with a combination of anti-CD16mAb (3 μg/mL) and IL-2 (1,000 U/mL) for 18 hours before supernatants were removed and used for differentiation experiments. The amounts of IFN-γ produced by activated NK cells were assess with IFN-γ ELISA (Biolegend, CA, USA). MP2 cells were differentiated with gradual daily addition of increasing amounts of NK cell supernatants (of corresponding treatments). On average, to induce differentiation, a total of 3,500 pg of IFN-γ containing supernatants were added for 4 days to induce differentiation and resistance of MP2 tumor cells to NK cell-mediated cytotoxicity. Afterwards, target cells were washed with 1×PBS, detached and used for experiments.

MP2 [2] = assay: Propidium iodide cell death assay, MP2; format: cell-based, human; details: NAC (20 nM) 24 hours before paclitaxel
Procedure: as §1

Capan = assay: Propidium iodide cell death assay, Capan
MP2 [3] = assay: Surface expression on MP2 by flow cytometry; format: cell-based, human; details: 24 h
Procedure: MP2 cells were left untreated or treated with rhTNF-α (20 ng/mL), rhIFN-γ (200 U/mL) or the combination of rhTNF-α (20 ng/mL) and rhIFN-γ (200 U/mL) for 24 h. Afterwards, the cells were detached and the surface expression of CD44, CD54, MHC-class I and B7H1 were assessed using PE conjugated antibodies followed by flow cytometric analysis. Isotype controls were used as controls (FIG. 14A). MP2 and Capan cells were treated as described in FIG. 14A, and were detached from the tissue culture plates, labeled with ^51Cr and used in a standard 4-hour ^51Cr release assay using IL-2 (1000 U/mL) treated NK cells. Pre-treatment of NK cells with IL-2 (1000 U/ml) were carried out for 18-24 hours. Percent cytotoxicity was determined at different effector to target ratio and the lytic units 30/10^6 cells were determined using inverse number of NK cells required to lyse 30% of the tumor cells×100 (FIG. 14B).
Staining was performed by labeling the cells with antibodies as described previously. Briefly, the cells were washed twice with ice-cold PBS/1% BSA. Predetermined optimal concentrations of specific human flow cytometric antibodies were added to 1×10^4 cells in 50 μl of cold-PBS/1% BSA and cells were incubated on ice for 30 min. […] Flow cytometry analysis was performed using Beckman Coulter Epics XL cytometer (Brea, Calif.) and results were analyzed in FlowJo vX software (Ashland, Oreg.).

MP2 [4] = assay: 4-hour 51Cr release cytotoxicity / ADCC assay against MP2; format: cell-based, human; details: IL-2 treated NK cells; tumor cells treated 24 h
Procedure: The target cells (5×10^5) were labeled with 50 μCi ^51Cr (Perkin Elmer, Santa Clara, Calif.) and chromated for 1 hour. Following incubation, target cells were washed once to remove excess unbound ^51Cr. […] Following incubation, target cells were washed again to remove excess unbound antibody and ^51Cr. Labeled target cells were culture with effector cells and the cytotoxicity against target cells were assessed using ^51Cr release cytotoxicity assay.
^51Cr Release Cytotoxicity Assay ^51Cr was purchased from Perkin Elmer (Santa Clara, Calif.). Standard ^51Cr release cytotoxicity assays were used to determine NK cell cytotoxic function in the experimental cultures. […] After a 4-hour incubation period, the supernatants were harvested from each sample and counted for released radioactivity using the gamma counter. Total (containing ^51Cr labeled target cells) and spontaneous (supernatants of target cells alone) release values were measured and used to calculate the percentage specific cytotoxicity. The percentage specific cytotoxicity was calculated using the following formula: […]
Lu30/10^6 is calculated by using the inverse of the number of effector cells needed to lyse 30% of target cells×100.
The ^51Cr release assay was performed as described previously. […] The percentage specific cytotoxicity was calculated using the following formula: […]

[5] = NAC (20 nM) 24 hours before paclitaxel

N.N.[Cl][Pt][Cl] [CDDP, cis-dichlorodiammineplatinum]
cell death of stem-like/poorly differentiated OSCSCs (OSCSCs): minimal effects | cell death of patient-derived differentiated OSCCs (OSCCs): higher cell death

CC(=O)N[C@@H](CS)C(=O)O [NAC, N-Acetyl Cysteine]
effect of NAC on paclitaxel mediated cell death of PL12 (PL12; [5]): increased paclitaxel mediated cell death | effect of NAC on cell death of NK-supernatant differentiated MP2 [1, 5]: increased cell death | effect of NAC on paclitaxel mediated cell death of MP2 (MP2 [2]): increased paclitaxel mediated cell death | effect of NAC on paclitaxel mediated cell death of Capan (Capan; [5]): increased paclitaxel mediated cell death

CC(=O)O[C@H]1C(=O)[C@@]2(C)[C@H]([C@H](OC(=O)c3ccccc3)[C@]3(O)C[C@H](OC(=O)[C@H](O)[C@@H](NC(=O)c4ccccc4)c4ccccc4)C(C)=C1C3(C)C)[C@]1(OC(C)=O)CO[C@@H]1C[C@@H]2O [paclitaxel]
cell death of stem-like/poorly differentiated OSCSCs (OSCSCs): minimal effects | paclitaxel mediated cell death of PL12 (PL12; compared with MP2): higher levels of cell death | paclitaxel mediated cell death of NK-supernatant differentiated MP2 [1]: susceptibility to paclitaxel | cell death of patient-derived differentiated OSCCs (OSCCs): higher cell death | paclitaxel mediated cell death of Capan (Capan; compared with MP2): higher levels of cell death

rhIFN-γ: Recombinant human IFN-γ from Biolegend
surface expression of B7H1 on MP2 (MP2 [3]): upregulate B7H1 | surface expression of CD54, MHC-class I, B7H1 and CD44 on MP2 (MP2 [3]; rhTNF-α 20 ng/mL, rhIFN-γ 200 U/mL): increase surface expression of CD54 and MHC-class I

B1: rhIFN-γ: Recombinant human IFN-γ from Biolegend (protein, UniProt P01579 24-161, looked up)
Interferon gamma: QDPYVKEAENLKKYFNAGHSDVADNGTLFLGILKNWKEESDRKIMQSQIVSFYFKLFKNFKDDQSIQKSVETIKEDMNVKFFNSNKKKRDDFEKLTNYSVTDLNVQRKAIHELIQVMAELSPAAKTGKRKRSQMLFRG
resistance of MP2 against NK cell mediated cytotoxicity (MP2 [4]): significant resistance
